Experimental data taken from patent US20130090305A1, “METHOD USING A DIETARY SUPPLEMENT FOR HEALING OR REGRESSING SYMPTOMS OF GASTROESOPHAGEAL REFLUX DISEASE, GASTRITIS AND ULCERS” (priority 2006, published 2013).

Legend:
[1] = tested on: chronic GERD, ulcer of 6 cm in the esophagus; assay: Case of a patient with chronic GERD and a 6 cm esophageal ulcer; format: in vivo, human; details: before the formulation; regurgitation and heartburn
[2] = tested on: nitric oxide biosynthesis; details: cited from earlier work
gastric acid secretion = details: cited from earlier work
[3] = tested on: spontaneous gastric ulcers; details: 4-week administration in the diet, young pigs; cited from earlier work

Compound | relief of symptoms with earlier treatments [1] | effect on nitric oxide biosynthesis [2] | action on gastric acid secretion (gastric acid secretion) | incidence of spontaneous gastric ulcers [3]
O=C([O-])O.[Na+] [baking soda] | Neither treatment produced even partial relief |  |  | 
COc1ccc2[nH]cc(CCNC(C)=O)c2c1 [melatonin, N-Acetyl-5-methoxytryptamine] |  | inhibits | inhibitory action | significantly reduced
